Data set [1] has as its system PD1-ss+10aa/Gaussia Luciferase. The data set can be described thus: Dox-Induced PD1-ss-Gluc Assay. The following applies: 24 hr Dox induction, 293FRT/TO cells, read-out: 24 hr Dox Inducible PD1ssGluc 293FRT/TO: Mean IC50. The data set is classed as cell-based. In short, it runs like this: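 The cell line was made by transfecting Flp-In 293 T-REx cells with a PD1 signal sequence+10aa–Gaussia luciferase fusion under T-REx control and selecting with hygromycin and blasticidin. Cells were seeded, and next day compound plus doxycycline was added at 37 °C, 5% CO2.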

The subject of data set [2] is TNFα-FL/Gaussia Luciferase. The experiment in a line: Dox Induced TNFα-FL-Gluc Assay. The data set is classed as cell-based. The following applies: for IC50: 24 hr Dox induction, 293FRT/TO cells, read-out: 24 hr Dox Inducible TNFaFLGluc 293FRT/TO: Mean IC50; for 24 hr Dox Inducible TNFaFLGluc 293FRT/TO: TNF/PD1: ratio of TNFaFLGluc IC50 to PD1ssGluc IC50. In short, it runs like this: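 Cells are seeded one day ahead, then treated with compound plus doxycycline at 37 °C, 5% CO2. The stable Flp-In 293 T-REx line expresses full-length TNFα (amino acids 1-233) with Gaussia luciferase fused to its 3′ end, inducibly via T-REx.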

In data set [3] the test system is HER3-ss+4aa/Gaussia Luciferase. The experiment in a line: Dox-Induced Her3-ss-Gluc Assay. It is filed as cell-based. The following applies: 24 hr Dox induction, 293FRT/TO cells, read-out: 24 hr Dox Inducible Her3(ss + 4)Gluc 293FRT/TO: Mean IC50. In short, it runs like this: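 Expression of a Gaussia luciferase reporter carrying the HER3 signal sequence plus 4 amino acids is induced by doxycycline in stably transfected Flp-In 293 T-REx cells. Compounds are added with doxycycline at 37° C., 5% CO2. Undefined stereocentres denote stereoisomer mixtures.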

The subject of data set [4] is IL-2-FL/Gaussia Luciferase. The experiment in a line: Dox Induced IL2-FL-Gluc Assay. The data set is classed as cell-based. The following applies: for IC50: 24 hr Dox induction, 293FRT/TO cells, read-out: 24 hr Dox Inducible IL2FLGluc 293FRT/TO: Mean IC50; for 24 hr Dox Inducible IL2FLGluc 293FRT/TO: IL2/PD1: ratio of IL2FLGluc IC50 to PD1ssGluc IC50. In short, it runs like this: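 Reporter is Gaussia luciferase fused to the 3′ end of full-length IL-2 (aa 1-153), expressed from a doxycycline-inducible T-REx construct in stably selected Flp-In 293 cells. Compounds were co-added with doxycycline and incubated at 37° C, 5% CO2.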

Data set [5] has as its system multiple myeloma cell line NCI-H929. The data set can be described thus: H929 Cell Viability Assay. It is filed as cell-based, human. Conditions: Homo sapiens, NCI-H929, 48 h, NCI-H929 cells, Celltiter-Glo. In short, it runs like this: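 Plate the myeloma cells in RPMI 1640 with 10% FBS, add serially diluted compound, incubate for 48 hours at 37° C, then add CellTiter-Glo and read luciferase signal.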
Background: Cellular ATP, detected with luciferase, serves as a proxy for viable cell number.

For data set [6], the system named is multiple myeloma cell line U266B1. The experiment in a line: U266 Cell Viability Assay. It is filed as cell-based, human. Conditions: Homo sapiens, U-266, 48 h, U266B1 cells, Celltiter-Glo. In short, it runs like this: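 48 h treatment, 37° C./5% CO2, RPMI 1640 + 10% FBS; viability by CellTiter-Glo luminescence.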
A short description of data set [7]: Liver Microsome Stability Assay (rat). The following applies: rat liver microsomes, with NADPH, 1.0 uM compound. In general terms: Microsomes from liver hold many membrane-bound enzymes, among them those of drug oxidation.
Description: (§1) Stability of a compound was assessed in the presence of liver microsomes from various sources—mouse, rat, monkey and human liver microsomes. 1.0 uM compound, 0.4% DMSO in 0.1 M Potassium Phosphate with 1.0 mg/mL liver microsomes, were incubated at 37° C. with or without 1 mM NADPH. The samples were quenched at 0, and 30 minutes.
Data set [8] can be described thus: Liver Microsome Stability Assay (mouse). The following applies: mouse liver microsomes, with NADPH, 1.0 uM compound.
Description: as §1
Data set [9] in a line: Liver Microsome Stability Assay (human). The following applies: human liver microsomes, with NADPH, 1.0 uM compound.
Description: as §1
Data set [10] in a line: Liver Microsome Stability Assay (monkey). Conditions: monkey liver microsomes, with NADPH, 1.0 uM compound.
Description: as §1
[11] abbreviates: '<=>' given where both are I.A.

The values below come from patent US20230286973A1, “PROTEIN SECRETION INHIBITORS” (KEZAR LIFE SCIENCES, priority 2020, published 2023).

Read-outs that look alike come from different tables or passages of the source. Where only a bound is given, the exact number is not on record here.

Broadly, the EC50 is the concentration that produces a half-maximal response.

Turning to `CC(=O)NCCOc1ccc(N2CCC[C@@H]2c2csc(NC(=O)c3cccn3Cc3ccnc(F)c3)n2)cc1` [Compound A121, (R)-N-(4-(1-(4-(2-acetamidoethoxy)phenyl)pyrrolidin-2-yl)thiazol-2-yl)-1-((2-fluoropyridin-4-yl)methyl)-1H-pyrrole-2-carboxamide], the IC50 is 10.9 nM in [1], 180 nM in [2], 17.5 nM in [3] and 20.7 nM in data set [4]. The “24 hr Dox Inducible TNFaFLGluc 293FRT/TO: TNF/PD1” value in [2] amounted to 16.5. In [4], the “24 hr Dox Inducible IL2FLGluc 293FRT/TO: IL2/PD1” value amounted to 1.9. Besides, the results for the 50% effective concentration (EC50) in [5] and in [6] were 447 nM and more than 25000 nM, respectively. The “Liver Microsome Stability (Multiple Species): Rat - % Remaining after 30 min w/NADPH” value in data set [7] came out at 9.82%. In data set [8], the “Liver Microsome Stability (Multiple Species): Mouse - % Remaining after 30 min w/NADPH” value came to 7.09%. Moreover, the “Liver Microsome Stability (Multiple Species): Human - % Remaining after 30 min w/NADPH” value in data set [9] turned out to be 8.26%. The “Liver Microsome Stability (Multiple Species): Monkey - % Remaining after 30 min w/NADPH” value in [10] is 1.57%.
On to `Cc1cc(C(=O)Nc2nc([C@H]3CCCN3c3ccc(NC(=O)N(C)C)cc3)cs2)n(Cc2ccnc(F)c2)c1` [Compound A163, (R)-N-(4-(1-(4-(3,3-dimethylureido)phenyl)pyrrolidin-2-yl)thiazol-2-yl)-1-((2-fluoropyridin-4-yl)methyl)-4-methyl-1H-pyrrole-2-carboxamide], for which the IC50 was 16.1 nM in data set [1], 328 nM in data set [2], 29.9 nM in data set [3] and 39.6 nM in data set [4]. For the same compound, the “24 hr Dox Inducible TNFaFLGluc 293FRT/TO: TNF/PD1” value in data set [2] worked out at 20.3. Also, the “24 hr Dox Inducible IL2FLGluc 293FRT/TO: IL2/PD1” value in data set [4] is listed as 2.5. Besides, the figures for the concentration for a half-maximal effect (EC50) in data set [5] and in [6] were 714 nM and more than 25000 nM, respectively. In data set [7], the “Liver Microsome Stability (Multiple Species): Rat - % Remaining after 30 min w/NADPH” value was found to be 50.2%. In addition, the “Liver Microsome Stability (Multiple Species): Mouse - % Remaining after 30 min w/NADPH” value in data set [8] turned out to be 36.3%. Also, in [9], the “Liver Microsome Stability (Multiple Species): Human - % Remaining after 30 min w/NADPH” value worked out at 67.5%. In data set [10], the “Liver Microsome Stability (Multiple Species): Monkey - % Remaining after 30 min w/NADPH” value is given as 44.9%.
With `O=C(Nc1nc(/C=C/c2cn(C3CCOCC3)cn2)cs1)c1cccn1Cc1ccnc(F)c1` [Compound B92, (E)-1-((2-fluoropyridin-4-yl)methyl)-N-(4-(2-(1-(tetrahydro-2H-pyran-4-yl)-1H-imidazol-4-yl)vinyl)thiazol-2-yl)-1H-pyrrole-2-carboxamide], the IC50 was 72.4 nM in data set [1], more than 25000 nM in [2], more than 25000 nM in data set [3] and 12100 nM in [4]. For the same compound, the “24 hr Dox Inducible TNFaFLGluc 293FRT/TO: TNF/PD1” value in data set [2] is given as more than 345. For the same compound, the “24 hr Dox Inducible IL2FLGluc 293FRT/TO: IL2/PD1” value in [4] amounted to 170. Also, the EC50 was 22800 nM in data set [5] and more than 25000 nM in [6]. Besides, the “Liver Microsome Stability (Multiple Species): Rat - % Remaining after 30 min w/NADPH” value in data set [7] is recorded as 2.02%. In addition, the “Liver Microsome Stability (Multiple Species): Mouse - % Remaining after 30 min w/NADPH” value in [8] amounted to 6.38%. Also, in data set [9], the “Liver Microsome Stability (Multiple Species): Human - % Remaining after 30 min w/NADPH” value was found to be 0.19%. Further, the “Liver Microsome Stability (Multiple Species): Monkey - % Remaining after 30 min w/NADPH” value in [10] is 0.04%.
With `O=C(Nc1nc([C@@H]2CCN(c3ccccn3)C2)cs1)c1cccn1Cc1ccncc1` [Compound E43, (R)-N-(4-(1-(pyridin-2-yl)pyrrolidin-3-yl)thiazol-2-yl)-1-(pyridin-4-ylmethyl)-1H-pyrrole-2-carboxamide], the IC50 was 1140 nM in data set [1] (mean), 21400 nM in data set [2] (mean), 3150 nM in data set [3] (mean) and 10900 nM in [4] (mean). For the same compound, the “24 hr Dox Inducible TNFaFLGluc 293FRT/TO: TNF/PD1” value in data set [2] (setting [11]) was 18.8. Also, in data set [4] (setting [11]), the “24 hr Dox Inducible IL2FLGluc 293FRT/TO: IL2/PD1” value came out at 9.6. Besides, the figures for the EC50 in [5] and in data set [6] were 16700 nM and 20300 nM, respectively. The “Liver Microsome Stability (Multiple Species): Rat - % Remaining after 30 min w/NADPH” value in data set [7] was 0.9%. In addition, the “Liver Microsome Stability (Multiple Species): Mouse - % Remaining after 30 min w/NADPH” value in data set [8] was found to be 0.5%. In addition, the “Liver Microsome Stability (Multiple Species): Human - % Remaining after 30 min w/NADPH” value in data set [9] was 0.28%. Moreover, the “Liver Microsome Stability (Multiple Species): Monkey - % Remaining after 30 min w/NADPH” value in data set [10] is 0.35%.
Take `CCc1ccc(N2CCC[C@@H]2c2csc(NC(=O)c3cccn3Cc3ccncc3)n2)cn1` [Compound C95, (R)-N-(4-(1-(6-ethylpyridin-3-yl)pyrrolidin-2-yl)thiazol-2-yl)-1-(pyridin-4-ylmethyl)-1H-pyrrole-2-carboxamide]: the IC50 was 5.05 nM in [1] (mean), 104 nM in data set [2] (mean), 3.5 nM in data set [3] (mean) and 15.5 nM in data set [4] (mean). For the same compound, the “24 hr Dox Inducible TNFaFLGluc 293FRT/TO: TNF/PD1” value in data set [2] (setting [11]) worked out at 20.5. Moreover, the “24 hr Dox Inducible IL2FLGluc 293FRT/TO: IL2/PD1” value in data set [4] (setting [11]) is reported as 3.1. Further, the 50% effective concentration (EC50) in data set [5] was 127 nM; in data set [6], 19600 nM. Besides, the “Liver Microsome Stability (Multiple Species): Rat - % Remaining after 30 min w/NADPH” value in data set [7] was 1.89%. In addition, the “Liver Microsome Stability (Multiple Species): Mouse - % Remaining after 30 min w/NADPH” value in data set [8] was 0.28%. The “Liver Microsome Stability (Multiple Species): Human - % Remaining after 30 min w/NADPH” value in data set [9] amounted to 0.44%. The “Liver Microsome Stability (Multiple Species): Monkey - % Remaining after 30 min w/NADPH” value in data set [10] turned out to be 0.11%.
`CC(C)(C)c1nc(/C=C/c2csc(NC(=O)c3cccn3Cc3ccncc3)n2)co1` [Compound B36, (E)-N-(4-(2-(2-(tert-butyl)oxazol-4-yl)vinyl)thiazol-2-yl)-1-(pyridin-4-ylmethyl)-1H-pyrrole-2-carboxamide]: the IC50 is 173 nM in [1], 3750 nM in [2], 773 nM in [3] and 2510 nM in data set [4]. The “24 hr Dox Inducible TNFaFLGluc 293FRT/TO: TNF/PD1” value in data set [2] turned out to be 21.7. For the same compound, the “24 hr Dox Inducible IL2FLGluc 293FRT/TO: IL2/PD1” value in [4] amounted to 14. In addition, the EC50 is 7030 nM in data set [5] and 7330 nM in data set [6]. In [7], the “Liver Microsome Stability (Multiple Species): Rat - % Remaining after 30 min w/NADPH” value is given as 2.95%. Besides, the “Liver Microsome Stability (Multiple Species): Mouse - % Remaining after 30 min w/NADPH” value in [8] was found to be 9.8%. In addition, in [9], the “Liver Microsome Stability (Multiple Species): Human - % Remaining after 30 min w/NADPH” value came out at 0.7%. For the same compound, the “Liver Microsome Stability (Multiple Species): Monkey - % Remaining after 30 min w/NADPH” value in data set [10] turned out to be 3.93%.
For `CC(C)n1cnc(/C=C/Cc2csc(NC(=O)c3cccn3Cc3ccnc(F)c3)n2)c1` [Compound B106, (E)-1-((2-fluoropyridin-4-yl)methyl)-N-(4-(3-(1-isopropyl-1H-imidazol-4-yl)allyl)thiazol-2-yl)-1H-pyrrole-2-carboxamide], the IC50 is 692 nM in data set [1], more than 25000 nM in data set [2], 1280 nM in data set [3] and 3010 nM in data set [4]. Also, the “24 hr Dox Inducible TNFaFLGluc 293FRT/TO: TNF/PD1” value in data set [2] is on record as more than 36.1. Also, in [4], the “24 hr Dox Inducible IL2FLGluc 293FRT/TO: IL2/PD1” value came to 4.3. The concentration for a half-maximal effect (EC50) in data set [5] and in [6] was more than 25000 nM each time. Also, in data set [7], the “Liver Microsome Stability (Multiple Species): Rat - % Remaining after 30 min w/NADPH” value is recorded as 5.01%. In addition, the “Liver Microsome Stability (Multiple Species): Mouse - % Remaining after 30 min w/NADPH” value in data set [8] is on record as 0.95%. The “Liver Microsome Stability (Multiple Species): Human - % Remaining after 30 min w/NADPH” value in data set [9] was found to be 0.59%. In data set [10], the “Liver Microsome Stability (Multiple Species): Monkey - % Remaining after 30 min w/NADPH” value was 0.06%.
